Structures are written as SMILES.

This is an account of results in publication PMC7215373, “Design, Synthesis, and Anticancer Evaluation of Novel Indole Derivatives of Ursolic Acid as Potential Topoisomerase II Inhibitors” (International Journal of Molecular Sciences, 2020).

In one assay the test system is HepG2 cells. Nature of the assay: MTT cytotoxicity assay, HepG2. The class given is cell-based, human. As to conditions: 48 h exposure. The procedure, abridged: (§1)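 Cells in DMEM with 10% FBS were seeded and allowed to attach for 24 h. They were then exposed to compound dilutions for 48 h at 37 °C, 5% CO2. Viability was measured by MTT (4 h), with formazan dissolved in DMSO and read at 570 nm.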
A general note: Formazan colour is commonly taken as a measure of viable cells.

Another assay relates to LO2 cells. The assay can be described thus: MTT cytotoxicity assay, normal hepatocyte LO2. The class given is cell-based. Particulars: Homo sapiens, L02, 48 h exposure, normal hepatocyte cell line. The procedure, abridged: as §1
A further assay deals with T1, Human Topoisomerase IIα (Homo sapiens, UniProt P11388).
T1 construct: purchased USB, Affymetrix, Waltham, MA, USA
T1 sequence (P11388 whole entry): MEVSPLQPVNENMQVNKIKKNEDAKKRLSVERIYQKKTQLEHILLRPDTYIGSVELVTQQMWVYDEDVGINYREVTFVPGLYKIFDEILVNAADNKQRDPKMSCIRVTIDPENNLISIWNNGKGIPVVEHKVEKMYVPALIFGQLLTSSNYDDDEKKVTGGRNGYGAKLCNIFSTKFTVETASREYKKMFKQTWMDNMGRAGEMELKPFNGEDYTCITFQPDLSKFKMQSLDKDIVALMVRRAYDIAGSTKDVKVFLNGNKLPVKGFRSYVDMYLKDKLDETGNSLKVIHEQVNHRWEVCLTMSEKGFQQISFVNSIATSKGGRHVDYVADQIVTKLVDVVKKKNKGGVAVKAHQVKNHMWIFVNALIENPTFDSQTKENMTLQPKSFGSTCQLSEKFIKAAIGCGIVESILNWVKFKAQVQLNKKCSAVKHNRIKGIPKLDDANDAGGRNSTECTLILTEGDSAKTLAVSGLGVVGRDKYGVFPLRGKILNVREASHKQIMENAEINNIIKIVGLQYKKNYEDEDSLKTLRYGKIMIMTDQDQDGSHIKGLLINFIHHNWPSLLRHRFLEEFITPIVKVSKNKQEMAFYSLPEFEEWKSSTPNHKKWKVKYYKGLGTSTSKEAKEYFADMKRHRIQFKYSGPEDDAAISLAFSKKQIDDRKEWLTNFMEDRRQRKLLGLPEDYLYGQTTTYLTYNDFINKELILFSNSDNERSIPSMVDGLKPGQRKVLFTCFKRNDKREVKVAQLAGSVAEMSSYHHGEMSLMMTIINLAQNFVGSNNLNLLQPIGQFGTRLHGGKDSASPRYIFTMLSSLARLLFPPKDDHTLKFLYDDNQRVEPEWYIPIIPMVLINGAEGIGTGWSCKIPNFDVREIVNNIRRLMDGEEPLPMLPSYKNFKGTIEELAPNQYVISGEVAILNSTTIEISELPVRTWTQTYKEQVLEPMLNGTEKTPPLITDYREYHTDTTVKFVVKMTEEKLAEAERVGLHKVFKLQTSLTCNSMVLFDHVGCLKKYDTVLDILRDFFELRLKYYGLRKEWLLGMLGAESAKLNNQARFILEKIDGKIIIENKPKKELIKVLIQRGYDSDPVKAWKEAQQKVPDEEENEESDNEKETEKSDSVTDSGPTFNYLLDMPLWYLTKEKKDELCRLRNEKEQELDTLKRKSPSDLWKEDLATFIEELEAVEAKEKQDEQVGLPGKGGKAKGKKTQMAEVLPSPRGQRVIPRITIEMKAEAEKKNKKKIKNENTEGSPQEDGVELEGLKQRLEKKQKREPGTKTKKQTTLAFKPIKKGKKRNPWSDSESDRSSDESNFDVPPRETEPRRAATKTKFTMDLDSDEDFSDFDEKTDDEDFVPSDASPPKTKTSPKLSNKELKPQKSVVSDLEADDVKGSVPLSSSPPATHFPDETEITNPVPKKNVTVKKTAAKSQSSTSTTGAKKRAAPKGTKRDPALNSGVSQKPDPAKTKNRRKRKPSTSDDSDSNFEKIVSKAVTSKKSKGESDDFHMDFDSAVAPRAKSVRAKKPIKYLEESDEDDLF
The assay can be described thus: Topoisomerase II relaxation assay (supercoiled pBR322). The class given is biochemical. The procedure, abridged: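 Compounds (in 2% v/v DMSO) pre-incubated 15 min with human Topo IIα and supercoiled pBR322 DNA, then reacted 30 min at 37 °C and stopped with 7 mM EDTA. Relaxed vs supercoiled DNA resolved on 1% TAE-agarose, ethidium bromide-stained and imaged. Etoposide served as positive control.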

Assay [1] relates to SMMC-7721 cells. Nature of the assay: ROS generation assay (DCFH-DA, flow cytometry). The class given is cell-based, human. Particulars: 48 h, control 3.97%. The procedure:
Reactive oxygen species (ROS), which can exert oxidative stress to cells and lead to disturbances in mitochondrial membrane potential, are important mediators for the induction of apoptosis in many cancer cells. To determine whether the apoptosis induced by compound 5f was associated with intracellular ROS level, SMMC-7721 cells treated with different concentrations of 5f were stained with the fluorescent probe DCFH-DA and analyzed by flow cytometry.
ROS generation assay was performed by using the reactive oxygen species assay kit (Beyotime Biotech., Shanghai, China). Intracellular ROS generation was tested through dichlorodihydro fluorescein diacetate (DCFH-DA) assay. DCFH-DA is taken up by SMMC-7721 cells, and then activated by esterase-mediated cleavage of acetate to form dichlorodihydro fluorescein (DCFH), which is trapped in the cells. DCFH is converted to fluorescein DCF in the presence of ROS. SMMC-7721 cells were seeded in six-well plates and incubated with different concentrations of compound 5f for 48 h. After removing the compound solution, cells were treated with 10 μM of DCFH-DA at 37 °C for 20 min. Subsequently, the cells were washed with PBS for three times and then exposed to light. Immediately after light exposure, the fluorescence intensity of dichlorofluorescein (DCF) was measured with excitation at 488 nm and emission at 525 nm by a flow cytometry (Becton-Dickinson FACSCalibur, Franklin Lakes, NJ, USA).
A general note: A flow cytometer gives signals particle by particle.

The test system of assay [2] is SMMC-7721 cells. Nature of the assay: JC-1 mitochondrial membrane potential assay. The class given is cell-based, human. As to conditions: 24 h, control 1.29%. On the procedure: It has been widely believed that intracellular ROS accumulation could decrease mitochondrial membrane potential (ΔΨm), which is a characteristic phenomenon of early apoptosis. To investigate the correlation between ΔΨm and apoptosis induced by compound 5f, the measurement of cells with decreased ΔΨm were carried out by JC-1 assay kit on the instructions of the manual.
The JC-1 mitochondrial membrane potential assay kit (Keygene Biotech., Nanjing, China) was employed to measure mitochondrial depolarization in SMMC-7721 cells. The fluorescence probe JC-1 was used to detect the change of mitochondrial membrane potential. Briefly, cells cultured in six-well plates after indicated treatments by compound 5f were incubated with an equal volume of JC-1 staining solution (5 μg/mL) at 37 °C for 20 min and rinsed twice with PBS. Mitochondrial membrane potentials were monitored by determining the relative amounts of dual emissions from mitochondrial JC-1 monomers or aggregates using flow cytometry (Becton-Dickinson FACSCalibur, Franklin Lakes, NJ, USA). Mitochondrial membrane depolarization is indicated by an increase in the percentage of cells with low ΔΨm (green fluorescence, lower right quadrant) compared with cells with high ΔΨm (red fluorescence, upper right quadrant).

For assay [3], the system named is SMMC-7721 cells. Nature of the assay: AO/EB double staining assay. The class given is cell-based, human. As to conditions: 0.3, 0.6 and 1.2 μM, 48 h. The text has this:
Apoptosis induced by compound 5f was further evaluated using acridine orange / ethidium bromide (AO/EB) double staining. AO, as a vital dye showing green fluorescence, can pass through cell membrane of living or dead cells, while EB only stains apoptotic or necrotic cells that have lost their integrity and appear red fluorescence. Therefore, the normal cells will be stained only by AO with bright green while apoptotic cells will be stained by AO and EB with red-orange [26, 27].
SMMC-7721 cells were seeded into six-well plates and incubated at 37 °C with 5% CO2 for 24 h. Then, the cells were exposed to different concentrations of compound 5f (0, 0.3, 0.6, and 1.2 μM) for 48 h. After that, 10 μL of each fluorescent dye cantaining AO and EB (10 μg/mL) were added to each well in equal volumes respectively and incubated for 5 min in the dark. The cells were visualized through an inverted fluorescence microscope (Olympus 1X71 Inverted System Microscope, Olympus, Tokyo, Japan).

On to `Cc1ccc2[nH]c3c(c2c1)C[C@@]1(C)C(CC[C@]2(C)C1CC=C1C4[C@@H](C)[C@H](C)CC[C@]4(C(=O)NCCCN4CCN(C)CC4)CC[C@]12C)C3(C)C` (stereo partly drawn) [5f, N-(3-(4-Methylpiperazin-1-yl)propyl)-5′-methyl-1′H-ursa-2,12-dieno[3,2-b]indol-28-carboxamide], for which the half-inhibitory concentration (IC50) is 0.91 ± 0.13 µM in the assay on HepG2 cells; around 1 µM in the assay on HepG2 cells (Homo sapiens, HepG2, 48 h); 10.6 ± 0.52 µM with LO2 cells. In addition, the inhibition at 20 µM on Human Topoisomerase IIα (20 μM compound, read-out: Topo II Inhibition (%) 20 μM) amounted to 43.2%. Moreover, the inhibition at 100 µM on Human Topoisomerase IIα (100 μM compound, read-out: Topo II Inhibition (%) 100 μM) was determined as 83.5%. Besides, the results for the “cells with elevated ROS levels (% relative ROS raised cells)” value with SMMC-7721 cells [1] (0.3 μM), in the assay on SMMC-7721 cells [1] (0.6 μM) and in the assay on SMMC-7721 cells [1] (1.2 μM) were 9.89%, 19.84% and 34.61%, respectively. The “percentage of cells with low ΔΨm” value turned out to be 7.43% in the assay on SMMC-7721 cells [2] (0.3 μM), 16.28% in the assay with SMMC-7721 cells [2] (0.6 μM) and 32.34% with SMMC-7721 cells [2] (1.2 μM). Moreover, the “apoptosis by AO/EB staining (fluorescence microscopy)” value with SMMC-7721 cells [3] is listed as “induced apoptosis”.

The IC50 is the midpoint of a concentration-inhibition curve. Low values mean inhibition by little substance, high ones a need for much substance. What is called inhibition is how much of the control response was suppressed.
